Test results published in patent US20230321185A1, “METHOD FOR TREATMENT OF TYPE-1 DIABETES IN A SUBJECT IN NEED THEREOF” (priority 2021, published 2023).

Legend:
Assay type in all cases: in vivo, Balb/c mice
[1] = Fasting blood sugar (FBS) in normal and STZ-induced type 1 diabetic mice; conditions: STZ-induced type 1 diabetic mice, IP; for mean percentage of FBS changes decreased by: end of treatment, value is a decrease (untreated D4 increased by 49.23%)
Protocol: In a 14-day period, diabetes type 1 was induced in a group of mice via injecting multiple low doses of Streptozotocin (STZ). Also, the other group of mice received an equal volume of citrate buffer (pH 4.5) intraperitoneally (I.P.) in the same procedure that was called the normal group.
(§1) Each of the normal (N) (n=20) and diabetic (D) (n=20) groups was divided into four subgroups. The first group (N1 and D1) (n=5) received 6.7 mg/kg intraperitoneally growth hormone for two weeks. The second group (N2 and D2) (n=5) administrated 0.185 mg/kg intraperitoneally magainin II for approximately four weeks. The third group (N3 and D3) (n=5) first received 0.185 mg/kg of magainin II for four weeks, and then 6.7 mg/kg of growth hormone for two weeks. Finally, the fourth group (N4 and D4) (n=5) received only an equal volume of physiological saline instead of these treatments.
(§2) FBS measurements before the treatment and weekly during the treatment, and glucose tolerance test (GTT) at the end of the treatment were performed. The pancreatic tissue was quickly removed and placed in a cold phosphate buffer saline (PBS). Some of the extracted tissues for additional tests were stored in a freezer (−80° C.) and some were immersed in 4% paraformaldehyde (PFA) for immunohistochemical staining.
Diabetes type 1 was induced in a group of mice via injecting multiple low doses of Streptozotocin (STZ) (40 mg/kg, intraperitoneal) for five consecutive days. The STZ dissolved in the 50 mM sodium citrate buffer (pH 4.5) to a final concentration of 4 mg/ml, immediately prior to injection. Nine days after the last STZ injection, all the mice have their FBS (fasting blood sugar) over 200 mg/dl were considered as type 1 diabetic mice group.
(§3) FBS levels were measured after fasting mice for 6 h (7:00-13:00) with an Accu-Chek glucometer via tail vein. Also in the glucose tolerance test, six hours after the mice were deprived of food (7:00-13:00), the first FBS was measured and after that mouse administrated glucose (2 g/kg bodyweight, intraperitoneally), and then at the indicated time points post-injection, blood glucose levels were measured.
The fasting blood sugars of mice in all diabetic and normal groups were measured before the treatment and weekly during the treatments. At the end of the treatments, the percentage of FBS changes were calculated. The average percentage of FBS alterations in each group was then determined. Finally, the average result of each group was compared and analyzed with other groups by prism software.

[2] = Glucose tolerance test (GTT) at the end of the treatment; conditions: for effect on blood glucose levels both in FBS and GTT: diabetic mice
Protocol: as §1, §2, §3

P-ERK = experiment: Western blot of pancreatic P-ERK; conditions: normal mice, vs N4 (saline)
Protocol: as §1
(§4) Proteins were extracted in RIPA buffer which are containing Tris-HCl buffer (100 mM, pH 7.5), ethylene diamine tetra acetic acid (EDTA, 10 mM), sodium pyrophosphate (10 mM), sodium fluoride (0.1 mM), sodium orthovanadate (10 mM), phenylmethylsulphonyl fluoride (PMSF, 2 mM), and aprotinin (10 mg/ml). The pancreas extracts were vortexed for 30 min frequently at 4° C. The homogenates were centrifuged at 12,000 rpm for 20 min at 4° C. The supernatants were stored in an −80° C. freezer. Total protein concentration was determined by the Lowry method. […]
(§5) All values are depicted as mean±SEM and considered significant if p<0.05. […] Data were analyzed using GraphPad Prism software and the results of groups were compared with the ANOVA test.

P-STAT5 = experiment: Western blot of pancreatic P-STAT5; conditions: for P-STAT5 expression increase in comparison with control group: diabetic mice, vs D4 (saline); for P-STAT5 expression increase compared with control group: normal mice, vs N4 (saline)
Protocol: as §1
(§6) Proteins were extracted in RIPA buffer which are containing Tris-HCl buffer (100 mM, pH 7.5), ethylene diamine tetra acetic acid (EDTA, 10 mM), sodium pyrophosphate (10 mM), sodium fluoride (0.1 mM), sodium orthovanadate (10 mM), phenylmethylsulphonyl fluoride (PMSF, 2 mM), and aprotinin (10 mg/ml). The pancreas extracts were vortexed for 30 min frequently at 4° C. The homogenates were centrifuged at 12,000 rpm for 20 min at 4° C. The supernatants were stored in an −80° C. freezer. Total protein concentration was determined by the Lowry method.
(§7) De-freeze sample was added to loading buffer and dithiothreitol 0.5 M solution, then heated for 5 min at 95° C. Sodium dodecyl sulfate-polyacrylamide gel electrophoresis (SDS PAGE) and then protein transfer to a polyvinylidene difluoride (PVDF) blotting membrane was performed. […] Finally, a result image was developed based on Western Blot-ECL ([…]) Development Protocol.
(§8) All values are depicted as mean±SEM and considered significant if p<0.05. The arbitrary optical density unit was acquired using ImageJ software (version 1.46). Data were analyzed using GraphPad Prism software and the results of groups were compared with the ANOVA test.

P-S6 = experiment: Western blot of pancreatic P-S6 (mTOR pathway activity)
Protocol: as §1, §6, §7, §8
The activity of mTOR pathway was appraised by evaluating the changes in ribosomal P-S6 expression. As a downstream factor of the mTOR pathway, results of pancreatic P-S6 expression in all treated diabetic and normal mice were compared with their control groups. Therefore, changes in P-S6 expression proportionally reflects the activity of mTOR pathway. […] Consequently, GH pulsatile secretion and temporally treatment period in this study via transient increase in mTOR activity can induce and enhance anabolic growth during the treatment, such as cell growth, ribosomal biogenesis, and protein synthesis.

PAX4 = experiment: Western blot of pancreatic PAX4; conditions: normal mice, vs normal control group
Protocol: as §1, §4, §5

[3] = test system: insulin+ and glucagon+ cells of pancreatic islets; experiment: Immunohistochemistry of pancreas sections, insulin+ and glucagon+ cells; conditions: type 1 diabetic mice
Protocol: as §1
Fixed tissue in 4% paraformaldehyde for 30 min at 4° C., embedded in paraffin and applied to slides. The prepared 6-μm sections were assayed as described previously. The following primary antibodies were used in these assays: rabbit anti-insulin antibody (ab63820) (1/500), mouse anti-glucagon antibody sc-514592 (1/500), mouse anti-vimentin antibody sc-6260 (1/500), rabbit recombinant anti-Ki67 (ab197547) (1/500), rat anti-CD3 antibody (ab11089) (1/500), mouse anti-CD19 antibody (sc-373897) (1/500). […]
as §5

Row | Substance | approximate improvement rate of fasting blood sugar in comparison with untreated control diabetic group [1] | mean percentage of FBS changes decreased by [1] | effect on blood glucose levels both in FBS and GTT [2] | blood sugar course in GTT ([2]; normal mice, glucose 2 g/kg IP) | P-ERK expression increase in comparison with control group (P-ERK) | P-STAT5 expression increase in comparison with control group (P-STAT5) | P-STAT5 expression increase compared with control group (P-STAT5) | P-S6 expression increase in comparison with control group (P-S6; diabetic mice, vs D4 (saline)) | P-S6 expression increase in comparison with control group (P-S6; normal mice, vs N4 (saline)) | Pax4 expression increase in comparison with control group (PAX4) | beta cell regeneration [3]
1 | GH: Human Growth Hormone produced by EXIR under the brand name Exitropin 4 IU (1.3 mg) (Somatropin), lyophilized powder | ~57.43% | 8.2% | less attenuating effect | higher than in other normal groups | no significant difference | not statistically significant | slight and non-significant increase | no significant difference | slight and not significant | ~135% | effective beta cell regeneration
2 | GIGKFLHSAKKFGKAFVGEIMNS (listed as Xenopus laevis) [magainin, cationic, amphipathic, a-helical antimicrobial peptide with twenty-three amino acids, synthesized by Biomatik] | ~97.13% | 47.9% | greatest effect on reducing blood sugar | – | no significant difference | not statistically significant | slight and non-significant increase | no significant difference | slight and not significant | ~125% | effective beta cell regeneration
